From patent US9453226B2, “Protection of cells from Alu-RNA-induced degeneration and inhibitors for protecting cells” (UNIVERSITY OF KENTUCKY RESEARCH FOUNDATION, priority 2011, dated 2016)

What was measured:
[1] = tested on: Dicer1 f/f mouse RPE cells; test: Loss of viability of Dicer1 f/f mouse RPE cells treated with Ad-Cre; format: cell-based
Protocol: Cells were plated at density of 15×10^3/cm^2 and after 16 h, at approximately 50% confluence, were infected with AdCre or AdNull (Vector Laboratories) with a multiplicity of infection of 1,000.

IL-18 = IL-18 maturation in RPE cell lysates of wild-type mice (Western blot); format: in vivo; details: WT mice, peptide intravitreous
Protocol: siRNAs formulated in siRNA buffer (20 mM KCL, 0.2 mM MgCl2 in HEPES buffer at pH 7.5; Dharmacon) or phosphate buffered saline (PBS; Sigma-Aldrich); the TLR4 antagonist Ultra Pure Rhodobacter sphaeroides LPS (LPS-RS, InvivoGen), a peptide inhibitor of MyD88 homodimerization IMG-2005 (IMGENEX), control inhibitor (IMGENEX), recombinant IL-18 (Medical & Biological Laboratories), neutralizing rat antibodies against mouse IL-1β (IMGENEX), neutralizing rat antibodies against mouse IL-18 (Medical & Biological Laboratories), isotype control IgGs (R&D Systems or eBioscience as appropriate), Caspase-1 inhibitor Z-WEHD-FMK (R&D Systems), Caspase control inhibitor Z-FA-FMK (R&D Systems), DPI (Enzo Life Sciences), Mito-TEMPO (Enzo Life Sciences), MitoQ and dTPP (both adsorbed to cyclodextrin and provided by M.P. Murphy, MRC Mitochondrial Biology Unit), and gp91ds-tat and scrambled gp91 ds-tat (both Anaspec), were dissolved in phosphate buffered saline (PBS; Sigma-Aldrich) or dimethyl sulfoxide (DMSO; Sigma-Aldrich), and injected into the vitreous humor in a total volume of 1 μL with a 33-gauge Exmire microsyringe (Ito Corporation). […] As a control, Luc siRNA-chol (17+2 nt) was used with identical dosages. […]

Substance | loss of cell viability in Dicer1 f/f mouse RPE cells treated with Ad-Cre [1] | pAlu-induced IL-18 maturation (IL-18) | pAlu-induced IL-18 maturation (IL-18; listed as Caspase-1 peptide inhibitor)
DRQIKIWFQNRRMKWKKRDVLPGT [MyD88 inhibitory peptide] | rescues | – | –
Z-WEHD-FMK | – | blocked IL-18 maturation | impaired
